Columns and labels:
MCF7 [1] = assay: Cytotoxicity against Homo sapiens (human) MCF-7 cells after 48 hr by SRB assay relative to control; format: functional, cell-based; conditions: MCF7, 48 h
MCF7 [2] = assay: Cytotoxicity against Homo sapiens (human) MCF-7 cells assessed as surviving fraction at 100 uM after 48 hr by SRB assay relative to control; format: functional
MCF7 [3] = assay: Cytotoxicity against Homo sapiens (human) MCF-7 cells assessed as surviving fraction at 50 uM after 48 hr by SRB assay relative to control; format: functional
MCF7 [4] = assay: Cytotoxicity against Homo sapiens (human) MCF7 cells assessed as surviving fraction at 25 uM after 48 hr by SRB assay relative to control; format: functional
MCF7 [5] = assay: Cytotoxicity against Homo sapiens (human) MCF-7 cells assessed as surviving fraction at 10 uM after 48 hr by SRB assay relative to control; format: functional
MCF7 [6] = assay: Potentiation of gamma-irradiation-induced cytotoxicity against Homo sapiens (human) MCF-7 cells after 48 hr by SRB assay; format: functional, cell-based; conditions: MCF7, light or radiation study
MCF7 [7] = assay: Radiosensitizing activity against Homo sapiens (human) gamma-irradiated MCF-7 cells assessed as surviving fraction at 50 uM after 48 hr by SRB assay (reference value: 0.927 +/- 0.02); format: functional
MCF7 [8] = assay: Radiosensitizing activity against Homo sapiens (human) gamma-irradiated MCF-7 cells assessed as surviving fraction at 100 uM after 48 hr by SRB assay (reference value: 0.927 +/- 0.02); format: functional
MCF7 [9] = assay: Radiosensitizing activity against Homo sapiens (human) gamma-irradiated MCF-7 cells assessed as surviving fraction at 25 uM after 48 hr by SRB assay (reference value: 0.927 +/- 0.02); format: functional
MCF7 [10] = assay: Radiosensitizing activity against Homo sapiens (human) gamma-irradiated MCF-7 cells assessed as surviving fraction at 10 uM after 48 hr by SRB assay (reference value: 0.927 +/- 0.02); format: functional

SMILES	IC50 (MCF7 [1]) [µM]	fold change (surviving fraction) (MCF7 [2])	fold change (FC) (MCF7 [3])	fold change (FC) (MCF7 [4])	fold change (FC) (MCF7 [5])	IC50 (MCF7 [6]) [µM]	fold change (FC) (MCF7 [7])	fold change (FC) (MCF7 [8])	fold change (FC) (MCF7 [9])	fold change (FC) (MCF7 [10])
Cc1nc2c(c(=O)[nH]1)C(c1ccc(F)cc1)C1=C(CC(C)(C)CC1=O)N2c1ccc(S(N)(=O)=O)cc1 (stereo not given)	69.8	0.425	0.494	0.654	0.768					
CC1(C)CC(=O)C2=C(C1)N(c1ccc(S(N)(=O)=O)cc1)c1ncnc(Cl)c1C2c1ccc(F)cc1 (stereo not given)	85.6	0.457	0.635	0.785	0.909					
CC1(C)CC(=O)C2=C(C1)N(c1ccc(S(N)(=O)=O)cc1)C(N1C(=O)CCC1=O)=C(C#N)C2c1ccc(F)cc1 (stereo not given)	94.1	0.488	0.678	0.885	0.933					
CC1(C)CC(=O)C2=C(C1)N(c1ccc(S(N)(=O)=O)cc1)C(NC(=O)CCl)=C(C#N)C2c1ccc(F)cc1 (stereo not given)	70.8	0.43	0.45	0.7	0.885					
CCOC(=O)Cn1cnc2c(c1=O)C(c1ccc(F)cc1)C1=C(CC(C)(C)CC1=O)N2c1ccc(S(N)(=O)=O)cc1 (stereo not given)	> 100	0.572	0.686	0.898	0.969					
CC1(C)CC(=O)C2=C(C1)N(c1ccc(S(N)(=O)=O)cc1)c1nc[nH]c(=S)c1C2c1ccc(F)cc1 (stereo not given)	> 100	0.608	0.686	0.901	0.99					
CC1(C)CC(=O)C2=C(C1)N(c1ccc(S(N)(=O)=O)cc1)c1ncnc(NN)c1C2c1ccc(F)cc1 (stereo not given)	81.2	0.518	0.478	0.652	0.959					
CC1(C)CC(=O)C2=C(C1)N(c1ccc(S(N)(=O)=O)cc1)C(N)=C(C(N)=O)C2c1ccc(F)cc1 (stereo not given)	75.2	0.493	0.409	0.711	0.906					
CC(=O)CC(=O)NC1=C(C#N)C(c2ccc(F)cc2)C2=C(CC(C)(C)CC2=O)N1c1ccc(S(N)(=O)=O)cc1 (stereo not given)	> 100	0.663	0.76	0.905	0.919					
CC1(C)CC(=O)C2=C(C1)N(c1ccc(S(N)(=O)=O)cc1)c1ncnc(N=C=S)c1C2c1ccc(F)cc1 (stereo not given)	85.6	0.534	0.487	0.755	0.922					
CCO/C=N/C1=C(C#N)C(c2ccc(F)cc2)C2=C(CC(C)(C)CC2=O)N1c1ccc(S(N)(=O)=O)cc1 (stereo not given)	67.3	0.401	0.477	0.62	0.904	36	0.199	0.156	0.428	0.677
CC(=O)NC1=C(C#N)C(c2ccc(F)cc2)C2=C(CC(C)(C)CC2=O)N1c1ccc(S(N)(=O)=O)cc1 (stereo not given)	85.9	0.483	0.598	0.763	0.882					
CC1(C)CC(=O)C2=C(C1)N(c1ccc(S(N)(=O)=O)cc1)c1nc[nH]c(=O)c1C2c1ccc(F)cc1 (stereo not given)	77.1	0.447	0.499	0.757	0.934					
CCNC(=S)NC1=C(C#N)C(c2ccc(F)cc2)C2=C(CC(C)(C)CC2=O)N1c1ccc(S(N)(=O)=O)cc1 (stereo not given)	> 100	0.609	0.642	0.852	0.924					
CC1(C)CC(=O)C2=C(C1)N(c1ccc(S(N)(=O)=O)cc1)c1ncnc(N)c1C2c1ccc(F)cc1 (stereo not given)	52.6	0.381	0.311	0.448	0.795	28.5	0.163	0.222	0.347	0.51
CC1(C)CC(=O)C2=C(C1)N(c1ccc(S(N)(=O)=O)cc1)c1nc(CCl)[nH]c(=O)c1C2c1ccc(F)cc1 (stereo not given)	> 100	0.768	0.784	0.77	0.984					
CC1(C)CC(=O)C2=C(C1)N(c1ccc(S(N)(=O)=O)cc1)C(N)=C(C1=NCCN1)C2c1ccc(F)cc1 (stereo not given)	87	0.581	0.423	0.679	0.873					
CC(=O)N(C(C)=O)C1=C(C#N)C(c2ccc(F)cc2)C2=C(CC(C)(C)CC2=O)N1c1ccc(S(N)(=O)=O)cc1 (stereo not given)	79.7	0.498	0.455	0.733	0.987					
CC1(C)CC(=O)C2=C(C1)N(c1ccc(S(N)(=O)=O)cc1)C(N)=C(C#N)C2c1ccc(F)cc1 (stereo not given)	71.8	0.482	0.427	0.562	0.855					
CC1(C)CC(=O)C2=C(C1)N(c1ccc(S(N)(=O)=O)cc1)c1nc(CC#N)[nH]c(=O)c1C2c1ccc(F)cc1 (stereo not given)	> 100	0.6	0.662	0.864	0.976					

From ChEMBL document CHEMBL3044831, “Docking study, in vitro anticancer screening and radiosensitizing evaluation of some new fluorine-containing quinoline and pyrimidoquinoline derivatives bearing a sulfonamide moiety” (Med Chem Res, 2011)
